Here are results for seven compounds from ChEMBL document CHEMBL1139487, “Discovery of corticotropin releasing factor 2 receptor selective sauvagine analogues for treatment of skeletal muscle atrophy” (J Med Chem, 2005).

For assay [1], the target named is T1, Corticotropin-releasing factor receptor 1 (Mus musculus) (UniProt P35347).
T1 sequence (whole entry): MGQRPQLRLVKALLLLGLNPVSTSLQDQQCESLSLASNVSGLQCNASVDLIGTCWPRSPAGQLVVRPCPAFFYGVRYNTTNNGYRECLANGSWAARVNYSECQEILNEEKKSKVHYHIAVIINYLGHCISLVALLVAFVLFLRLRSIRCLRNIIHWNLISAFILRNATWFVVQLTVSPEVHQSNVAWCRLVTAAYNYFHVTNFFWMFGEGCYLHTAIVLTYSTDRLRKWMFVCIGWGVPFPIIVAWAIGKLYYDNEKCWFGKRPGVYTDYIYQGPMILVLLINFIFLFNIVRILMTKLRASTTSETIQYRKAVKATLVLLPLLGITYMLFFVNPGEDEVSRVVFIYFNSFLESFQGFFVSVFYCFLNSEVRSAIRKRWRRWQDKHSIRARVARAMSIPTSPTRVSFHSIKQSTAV
The experiment in a line: In vitro agonistic activity against mouse corticotropin releasing factor 1 receptor. It counts as functional.

Assay [2] concerns the target Corticotropin-releasing factor receptor 2 (Mus musculus) (UniProt Q60748). The assay can be described thus: In vitro agonistic activity against mouse corticotropin releasing factor 2 receptor. In kind it is functional.
The species entered for assay [3] is Mus musculus. The assay can be described thus: Selectivity ratio of EC50s for mouse corticotropin releasing factor receptors 1 and 2.
The target of assay [4] is T2, Corticotropin-releasing factor receptor 1 (Mus musculus, UniProt P35347).
T2 sequence (P35347 whole entry): T1 sequence (whole entry)
The experiment in a line: In vitro effective concentration for mouse corticotropin releasing factor 1 receptor.

Assay [5] concerns the target Corticotropin-releasing factor receptor 2 (Mus musculus, UniProt Q60748). The experiment in a line: In vitro effective concentration for mouse corticotropin releasing factor 2 receptor.

Each structure is given as a SMILES string. Square brackets hold non-standard residues; d marks the D form. Peptide text beside a SMILES is read from it. 1Nal = N[C@@H](Cc1cccc2ccccc12)C(=O)O; pGlu = O=C1CC[C@@H](C(=O)O)N1

Chain of Corticotropin-releasing factor receptor 2 (Mus musculus) (Q60748 whole entry): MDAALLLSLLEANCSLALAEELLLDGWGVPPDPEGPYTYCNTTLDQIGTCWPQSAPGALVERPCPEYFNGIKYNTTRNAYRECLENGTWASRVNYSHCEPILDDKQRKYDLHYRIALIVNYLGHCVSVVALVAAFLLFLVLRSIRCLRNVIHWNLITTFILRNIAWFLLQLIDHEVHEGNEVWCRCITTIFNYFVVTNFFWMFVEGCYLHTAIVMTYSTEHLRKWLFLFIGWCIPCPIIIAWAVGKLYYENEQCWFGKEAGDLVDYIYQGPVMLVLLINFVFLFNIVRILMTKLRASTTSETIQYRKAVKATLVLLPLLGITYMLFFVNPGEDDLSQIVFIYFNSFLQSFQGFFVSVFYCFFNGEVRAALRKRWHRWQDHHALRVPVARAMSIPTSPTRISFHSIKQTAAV
Chain of Corticotropin-releasing factor receptor 2 (Q60748 whole entry): as above

`CC[C@H](C)[C@H](NC(=O)[C@@H](NC(=O)[C@H](CC(=O)O)NC(=O)[C@H](CC(C)C)NC(=O)[C@H](CC(C)C)NC(=O)[C@H](CC(C)C)NC(=O)[C@H](CCCN=C(N)N)NC(=O)[C@H](CC(N)=O)NC(=O)[C@H](CC(N)=O)NC(=O)[C@H](C)NC(=O)[C@H](C)NC(=O)[C@H](CCC(N)=O)NC(=O)[C@H](CCC(N)=O)NC(=O)[C@H](CCCCN)NC(=O)[C@H](CCC(=O)O)NC(=O)[C@H](CCCCN)NC(=O)[C@H](CCC(=O)O)NC(=O)[C@H](CCC(N)=O)NC(=O)[C@H](CCCCN)NC(=O)[C@H](CCC(=O)O)NC(=O)[C@@H](NC(=O)[C@H](CCC(=O)O)NC(=O)[C@@H](NC(=O)[C@H](CCSC)NC(=O)[C@H](CCCCN)NC(=O)[C@H](CCCN=C(N)N)NC(=O)[C@H](CC(C)C)NC(=O)[C@H](CC(C)C)NC(=O)[C@H](Cc1ccc(O)cc1)NC(=O)[C@H](CCC(N)=O)NC(=O)[C@@H]1CCCN1C(=O)[C@H](CC(C)C)NC(=O)[C@H](CC(=O)O)NC(=O)[C@@H](NC(=O)[C@H](CO)NC(=O)[C@@H](NC(=O)[C@@H]1CCCN1C(=O)[C@@H]1CCCN1C(=O)CNC(=O)[C@@H]1CCC(=O)N1)[C@@H](C)CC)[C@@H](C)CC)[C@@H](C)CC)[C@@H](C)CC)[C@@H](C)O)C(=O)O`: the figures for the Emax in assay [1] and in assay [2] were 100% and 96%, respectively. The Selectivity in assay [3] was determined as 30.

On to `CC[C@H](C)[C@H](NC(=O)[C@@H](NC(=O)[C@H](CC(=O)O)NC(=O)[C@H](CC(C)C)NC(=O)[C@H](CC(C)C)NC(=O)[C@H](CC(C)C)NC(=O)[C@H](CCCN=C(N)N)NC(=O)[C@H](CC(N)=O)NC(=O)[C@H](CC(N)=O)NC(=O)[C@H](C)NC(=O)[C@H](C)NC(=O)[C@H](CCC(N)=O)NC(=O)[C@H](CCC(N)=O)NC(=O)[C@H](CCCCN)NC(=O)[C@H](CCC(=O)O)NC(=O)[C@H](CCCCN)NC(=O)[C@H](CCC(=O)O)NC(=O)[C@H](CCC(N)=O)NC(=O)[C@H](CCCCN)NC(=O)[C@H](CCC(=O)O)NC(=O)[C@@H](NC(=O)[C@H](CCC(=O)O)NC(=O)[C@@H](NC(=O)[C@H](CCSC)NC(=O)[C@H](CCCCN)NC(=O)[C@H](CCCN=C(N)N)NC(=O)[C@H](CC(C)C)NC(=O)[C@H](CC(C)C)NC(=O)[C@H](CCC(=O)O)NC(=O)[C@H](CC(C)C)NC(=O)[C@@H]1CCCN1C(=O)[C@H](CC(C)C)NC(=O)[C@H](CC(=O)O)NC(=O)[C@@H](NC(=O)[C@H](CO)NC(=O)[C@@H](NC(=O)[C@@H]1CCCN1C(=O)[C@@H]1CCCN1C(=O)CNC(=O)[C@@H]1CCC(=O)N1)[C@@H](C)CC)[C@@H](C)CC)[C@@H](C)CC)[C@@H](C)CC)[C@@H](C)O)C(=O)O`, for which the maximum response (Emax) (in general, the greatest response seen or fitted, relative to the assay's reference) amounted to 99% in assay [1] and 95% in assay [2]. Besides, in assay [3], the Selectivity worked out at 9.

Regarding `CC[C@H](C)[C@H](NC(=O)[C@@H](NC(=O)[C@H](CC(=O)O)NC(=O)[C@H](CC(C)C)NC(=O)[C@H](CC(C)C)NC(=O)[C@H](CC(C)C)NC(=O)[C@H](CCCN=C(N)N)NC(=O)[C@H](CC(N)=O)NC(=O)[C@H](CC(N)=O)NC(=O)[C@H](C)NC(=O)[C@H](C)NC(=O)[C@H](CCC(N)=O)NC(=O)[C@H](CCC(N)=O)NC(=O)[C@H](CCCCN)NC(=O)[C@H](CCC(=O)O)NC(=O)[C@H](CCCCN)NC(=O)[C@H](CCC(=O)O)NC(=O)[C@H](CCC(N)=O)NC(=O)[C@H](CCCCN)NC(=O)[C@H](CCC(=O)O)NC(=O)[C@@H](NC(=O)[C@H](CCC(=O)O)NC(=O)[C@@H](NC(=O)[C@H](CCSC)NC(=O)[C@H](CCCCN)NC(=O)[C@H](CCCN=C(N)N)NC(=O)[C@H](CC(C)C)NC(=O)[C@H](CC(C)C)NC(=O)[C@@H](NC(=O)[C@H](CC(C)C)NC(=O)[C@@H]1CCCN1C(=O)[C@H](CC(C)C)NC(=O)[C@H](CC(=O)O)NC(=O)[C@@H](NC(=O)[C@H](CO)NC(=O)[C@@H](NC(=O)[C@@H]1CCCN1C(=O)[C@@H]1CCCN1C(=O)CNC(=O)[C@@H]1CCC(=O)N1)[C@@H](C)CC)[C@@H](C)CC)C(C)C)[C@@H](C)CC)[C@@H](C)CC)[C@@H](C)O)C(=O)O`, the Emax in assay [1] was found to be 95%; in assay [2], 94%. Besides, the Selectivity in assay [3] is 48.

For `CC[C@H](C)[C@H](NC(=O)[C@@H](NC(=O)[C@H](CC(=O)O)NC(=O)[C@H](CC(C)C)NC(=O)[C@H](CC(C)C)NC(=O)[C@H](CC(C)C)NC(=O)[C@H](CCCN=C(N)N)NC(=O)[C@H](CC(N)=O)NC(=O)[C@H](CC(N)=O)NC(=O)[C@H](C)NC(=O)[C@H](C)NC(=O)[C@H](CCC(N)=O)NC(=O)[C@H](CCC(N)=O)NC(=O)[C@H](CCCCN)NC(=O)[C@H](CCC(=O)O)NC(=O)[C@H](CCCCN)NC(=O)[C@H](CCC(=O)O)NC(=O)[C@H](CCC(N)=O)NC(=O)[C@H](CCCCN)NC(=O)[C@H](CCC(=O)O)NC(=O)[C@@H](NC(=O)[C@H](CCC(=O)O)NC(=O)[C@@H](NC(=O)[C@H](CCSC)NC(=O)[C@H](CCCCN)NC(=O)[C@H](CCCN=C(N)N)NC(=O)[C@H](CC(C)C)NC(=O)[C@H](CC(C)C)NC(=O)[C@H](CCC(N)=O)NC(=O)[C@H](CC(C)C)NC(=O)[C@@H]1CCCN1C(=O)[C@H](CC(C)C)NC(=O)[C@H](CC(=O)O)NC(=O)[C@@H](NC(=O)[C@H](CO)NC(=O)[C@@H](NC(=O)[C@@H]1CCCN1C(=O)[C@@H]1CCCN1C(=O)CNC(=O)[C@@H]1CCC(=O)N1)[C@@H](C)CC)[C@@H](C)CC)[C@@H](C)CC)[C@@H](C)CC)[C@@H](C)O)C(=O)O`, the Emax in assay [1] was determined as 100%; in assay [2], 88%. Besides, in assay [3], the Selectivity was determined as 65.

As to `CC[C@H](C)[C@H](NC(=O)[C@@H](NC(=O)[C@H](CC(=O)O)NC(=O)[C@H](CC(C)C)NC(=O)[C@H](CC(C)C)NC(=O)[C@H](CC(C)C)NC(=O)[C@H](CCCN=C(N)N)NC(=O)[C@H](CC(N)=O)NC(=O)[C@H](CC(N)=O)NC(=O)[C@H](C)NC(=O)[C@H](C)NC(=O)[C@H](CCC(N)=O)NC(=O)[C@H](CCC(N)=O)NC(=O)[C@H](CCCCN)NC(=O)[C@H](CCC(=O)O)NC(=O)[C@H](CCCCN)NC(=O)[C@H](CCC(=O)O)NC(=O)[C@H](CCC(N)=O)NC(=O)[C@H](CCCCN)NC(=O)[C@H](CCC(=O)O)NC(=O)[C@@H](NC(=O)[C@H](CCC(=O)O)NC(=O)[C@@H](NC(=O)[C@H](CCSC)NC(=O)[C@H](CCCCN)NC(=O)[C@H](CCCN=C(N)N)NC(=O)[C@H](CC(C)C)NC(=O)[C@H](CC(C)C)NC(=O)[C@H](Cc1cccc2ccccc12)NC(=O)[C@H](CCC(N)=O)NC(=O)[C@@H]1CCCN1C(=O)[C@H](CC(C)C)NC(=O)[C@H](CC(=O)O)NC(=O)[C@@H](NC(=O)[C@H](CO)NC(=O)[C@@H](NC(=O)[C@@H]1CCCN1C(=O)[C@@H]1CCCN1C(=O)CNC(=O)[C@@H]1CCC(=O)N1)[C@@H](C)CC)[C@@H](C)CC)[C@@H](C)CC)[C@@H](C)CC)[C@@H](C)O)C(=O)O` ([pGlu]GPPISIDLPQ[1Nal]LLRKMIEIEKQEKEKQQAANNRLLLDTI-OH), the maximal response (Emax) in assay [1] and in assay [2] was 100% throughout. Further, the Selectivity in assay [3] turned out to be 26.

For the compound `CC[C@H](C)[C@H](NC(=O)[C@@H](NC(=O)[C@H](CC(=O)O)NC(=O)[C@H](CC(C)C)NC(=O)[C@H](CC(C)C)NC(=O)[C@H](CC(C)C)NC(=O)[C@H](CCCN=C(N)N)NC(=O)[C@H](CC(N)=O)NC(=O)[C@H](CC(N)=O)NC(=O)[C@H](C)NC(=O)[C@H](C)NC(=O)[C@H](CCC(N)=O)NC(=O)[C@H](CCC(N)=O)NC(=O)[C@H](CCCCN)NC(=O)[C@H](CCC(=O)O)NC(=O)[C@H](CCCCN)NC(=O)[C@H](CCC(=O)O)NC(=O)[C@H](CCC(N)=O)NC(=O)[C@H](CCCCN)NC(=O)[C@H](CCC(=O)O)NC(=O)[C@@H](NC(=O)[C@H](CCC(=O)O)NC(=O)[C@@H](NC(=O)[C@H](CCSC)NC(=O)[C@H](CCCCN)NC(=O)[C@H](CCCN=C(N)N)NC(=O)[C@H](CC(C)C)NC(=O)[C@H](CC(C)C)NC(=O)[C@H](CC(C)C)NC(=O)[C@H](CC(C)C)NC(=O)[C@@H]1CCCN1C(=O)[C@H](CC(C)C)NC(=O)[C@H](CC(=O)O)NC(=O)[C@@H](NC(=O)[C@H](CO)NC(=O)[C@@H](NC(=O)[C@@H]1CCCN1C(=O)[C@@H]1CCCN1C(=O)CNC(=O)[C@@H]1CCC(=O)N1)[C@@H](C)CC)[C@@H](C)CC)[C@@H](C)CC)[C@@H](C)CC)[C@@H](C)O)C(=O)O`, the Emax was determined as 96% in assay [1] and 100% in assay [2]. The Selectivity in assay [3] is 22.

Regarding `CC[C@H](C)[C@H](NC(=O)[C@@H](NC(=O)[C@H](CC(=O)O)NC(=O)[C@H](CC(C)C)NC(=O)[C@H](CC(C)C)NC(=O)[C@H](CC(C)C)NC(=O)[C@H](CCCNC(=N)N)NC(=O)[C@H](CC(N)=O)NC(=O)[C@H](CC(N)=O)NC(=O)[C@H](C)NC(=O)[C@H](C)NC(=O)[C@H](CCC(N)=O)NC(=O)[C@H](CCC(N)=O)NC(=O)[C@H](CCCCN)NC(=O)[C@H](CCC(=O)O)NC(=O)[C@H](CCCCN)NC(=O)[C@H](CCC(=O)O)NC(=O)[C@H](CCC(N)=O)NC(=O)[C@H](CCCCN)NC(=O)[C@H](CCC(=O)O)NC(=O)[C@@H](NC(=O)[C@H](CCC(=O)O)NC(=O)[C@@H](NC(=O)[C@H](CCSC)NC(=O)[C@H](CCCCN)NC(=O)[C@H](CCCNC(=N)N)NC(=O)[C@H](CC(C)C)NC(=O)[C@H](CC(C)C)NC(=O)[C@H](CCC(=O)O)NC(=O)[C@H](CC(C)C)NC(=O)[C@@H]1CCCN1C(=O)[C@H](CC(C)C)NC(=O)[C@H](CC(=O)O)NC(=O)[C@@H](NC(=O)[C@H](CO)NC(=O)[C@@H](NC(=O)[C@@H]1CCCN1C(=O)[C@@H]1CCCN1C(=O)CNC(=O)[C@@H]1CCC(=O)N1)[C@@H](C)CC)[C@@H](C)CC)[C@@H](C)CC)[C@@H](C)CC)[C@@H](C)O)C(=O)O`, the figures for the 50% effective concentration (EC50) in assay [4] and in assay [5] were 0.096 µM and 0.0109 µM, respectively.
